# According to patent US10189810B2, “Pyrazolyl-substituted pyridone compounds as serine protease inhibitors” (VERSEON CORPORATION, priority 2014, dated 2019):
# Key:
# Human thrombin = target: T1, Human thrombin (Homo sapiens, UniProt P00734); test: thrombin protease inhibition assay (chromogenic substrate S-2238); assay type: biochemical; conditions: 3 nM thrombin, 125 μM S-2238, 10 min pre-incubation, RT, read at 405 nm
# T1 construct: Thrombin (fIIa, the active form of prothrombin) is another serine protease; purchased Haematologic Technologies Inc
# Procedure: The thrombin activity reported herein (e.g., Table A) was obtained as follows. […] Thrombin was assayed in buffer containing 0.05 M Tris (pH 7.4), 0.015 M NaCl and 0.01% PEG-8000. The final concentration of enzyme used was 3 nM thrombin. […] All assays were performed in 96-well microtiter plates at room temperature (RT). […] Inhibitor IC50 values were determined by adding test compound as ten point, three-fold serial dilutions in buffer solution, as known in the art. The plate was read at 10 minutes after substrate addition. The IC50 was calculated by plotting the percent (%) inhibition against compound concentration and fitting the data to a constrained four parameter sigmoidal curve, as known in the art.
# Human KLKB1 protein = target: T2, Human KLKB1 protein (Homo sapiens, UniProt P03952); test: KLKB1 kallikrein protease inhibition assay (chromogenic substrate S-2302); assay type: biochemical; conditions: 3 nM KLKB1, 250 μM S-2302, 10 min pre-incubation, RT, read at 405 nm
# T2 construct: purchased Enzyme Research Labs
# T2 sequence (P03952 391-638 limits assumed): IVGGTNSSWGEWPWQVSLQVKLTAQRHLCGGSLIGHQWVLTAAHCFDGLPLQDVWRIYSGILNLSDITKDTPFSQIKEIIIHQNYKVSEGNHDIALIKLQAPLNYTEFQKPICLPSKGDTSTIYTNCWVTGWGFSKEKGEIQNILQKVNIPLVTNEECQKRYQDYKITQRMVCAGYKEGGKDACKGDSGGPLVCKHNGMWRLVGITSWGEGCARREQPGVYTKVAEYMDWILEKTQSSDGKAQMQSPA
# T2 sequence (P03952 20-390 partner limits assumed): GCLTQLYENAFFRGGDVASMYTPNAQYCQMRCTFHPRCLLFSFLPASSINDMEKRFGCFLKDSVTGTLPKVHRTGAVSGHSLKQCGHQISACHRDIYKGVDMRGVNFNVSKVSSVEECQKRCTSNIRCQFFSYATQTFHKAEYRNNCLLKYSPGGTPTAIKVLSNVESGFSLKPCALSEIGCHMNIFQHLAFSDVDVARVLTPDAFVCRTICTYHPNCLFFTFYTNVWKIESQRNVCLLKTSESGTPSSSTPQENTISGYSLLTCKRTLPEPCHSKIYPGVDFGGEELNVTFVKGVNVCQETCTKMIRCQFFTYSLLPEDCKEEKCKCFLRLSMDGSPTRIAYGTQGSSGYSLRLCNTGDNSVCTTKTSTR
# Procedure: The KLKB1 kallikrein activity reported herein (e.g., Table A) was obtained as follows. Human KLKB1 protein was obtained from Enzyme Research Labs. The chromogenic substrate S-2302 was obtained from DiaPharma. KLKB1 was assayed in buffer containing 0.05 M Tris (pH 7.4), 0.01 M NaCl and 0.2% w/v PEG-8000. The final concentration of enzyme used was 3 nM KLKB1. The final concentration of substrate used was 250 μM S-2302 for KLKB1. All assays were performed in 96-well microtiter plates at room temperature (RT). […] The plate was read at 10 minutes after substrate addition. The IC50 was calculated by plotting the percent (%) inhibition against compound concentration and fitting the data to a constrained four parameter sigmoidal curve, as known in the art.
IC50 (Human thrombin) [µM],IC50 (Human KLKB1 protein) [µM],SMILES
< 0.1,0.1 to 1,"Cc1c[nH]c(=O)c(-c2cc(NCc3ccc(Cl)s3)n(C(=O)c3ccoc3)n2)c1 [Entry 4, 3-(5-[(5-chlorothiophen-2-yl)methyl]amino-1-(furan-3-carbonyl)-1H-pyrazol-3-yl)-5-methyl-1,2-dihydropyridin-2-one]"
0.1 to 1,1 to 10,"COc1ccccc1C(=O)n1nc(-c2c[nH]c(=O)c(Br)c2)cc1NCc1ccc(Cl)s1 [Entry 5, 3-bromo-5-(5-[(5-chlorothiophen-2-yl)methyl]amino-1-(2-methoxybenzoyl)-1H-pyrazol-3-yl)-1,2-dihydropyridin-2-one]"
–,10 to 100,"CC(C)(C)C(=O)n1nc(-c2ccn(CC(=O)N3CCOCC3)c(=O)c2)cc1NCc1ccc(Cl)s1 [Entry 12, 4-(5-[(5-chlorothiophen-2-yl)methyl]amino-1-(2,2-dimethylpropanoyl)-1H-pyrazol-3-yl)-1-[2-(morpholin-4-yl)-2-oxoethyl]-1,2-dihydropyridin-2-one]"
–,> 100,"CC(C)(C)C(=O)n1nc(-c2cccc(=O)n2Cc2ccccn2)cc1NCc1ccc(Cl)s1 [Entry 44, 6-(5-[(5-chlorothiophen-2-yl)methyl]amino-1-(2,2-dimethylpropanoyl)-1H-pyrazol-3-yl)-1-(pyridin-2-ylmethyl)-1,2-dihydropyridin-2-one]"

# Second part, the compound before the results:
SMILES,IC50 (Human thrombin) [µM],IC50 (Human KLKB1 protein) [µM]
"CC(C)(C)C(=O)n1nc(-c2cc(N3CCOCC3)c[nH]c2=O)cc1NCc1ccc(Cl)s1 [Entry 1, 3-(5-[(5-chlorothiophen-2-yl)methyl]amino-1-(2,2-dimethylpropanoyl)-1H-pyrazol-3-yl)-5-(morpholin-4-yl)-1,2-dihydropyridin-2-one]",< 0.1,1 to 10
"CC(C)(C)C(=O)n1nc(-c2cc(-c3ccccc3)c[nH]c2=O)cc1NCc1ccc(Cl)s1 [Entry 2, 3-(5-[(5-chlorothiophen-2-yl)methyl]amino-1-(2,2-dimethylpropanoyl)-1H-pyrazol-3-yl)-5-phenyl-1,2-dihydropyridin-2-one]",< 0.1,10 to 100
"COc1ccccc1C(=O)n1nc(-c2cc(-c3cccnc3)c[nH]c2=O)cc1NCc1ccc(Cl)s1 [Entry 3, 3-(5-[(5-chlorothiophen-2-yl)methyl]amino-1-(2-methoxybenzoyl)-1H-pyrazol-3-yl)-5-(pyridin-3-yl)-1,2-dihydropyridin-2-one]",0.1 to 1,0.1 to 1
"O=c1[nH]cc(-c2cc(NCc3ccc(Cl)s3)[nH]n2)cc1Br [Entry 6, 3-bromo-5-(5-[(5-chlorothiophen-2-yl)methyl]amino-1H-pyrazol-3-yl)-1,2-dihydropyridin-2-one]",> 100,> 100
"CC(C)(C)C(=O)n1nc(-c2ccc(=O)[nH]c2)cc1NCc1ccc(Cl)s1 [Entry 31, 5-(5-[(5-chlorothiophen-2-yl)methyl]amino-1-(2,2-dimethylpropanoyl)-1H-pyrazol-3-yl)-1,2-dihydropyridin-2-one]",–,10 to 100
"CC(C)(C)C(=O)n1nc(-c2ccc(=O)n(CC(=O)N3CCOCC3)c2)cc1NCc1ccc(Cl)s1 [Entry 32, 5-(5-[(5-chlorothiophen-2-yl)methyl]amino-1-(2,2-dimethylpropanoyl)-1H-pyrazol-3-yl)-1-[2-(morpholin-4-yl)-2-oxoethyl]-1,2-dihydropyridin-2-one]",–,> 100
"CC(C)(C)C(=O)n1nc(-c2cccc(=O)[nH]2)cc1NCc1ccc(Cl)s1 [Entry 43, 6-(5-[(5-chlorothiophen-2-yl)methyl]amino-1-(2,2-dimethylpropanoyl)-1H-pyrazol-3-yl)-1,2-dihydropyridin-2-one]",–,1 to 10
"CC(C)(C)C(=O)n1nc(-c2cccc(=O)n2CC(=O)N2CCOCC2)cc1NCc1ccc(Cl)s1 [Entry 45, 6-(5-[(5-chlorothiophen-2-yl)methyl]amino-1-(2,2-dimethylpropanoyl)-1H-pyrazol-3-yl)-1-[2-(morpholin-4-yl)-2-oxoethyl]-1,2-dihydropyridin-2-one]",–,> 100
